{"source": "patent US20080317862A1", "about": "“Organic Compounds Comprising a Glycopyrrolium Salt” (priority 2005, published 2008)", "origin": "cited, not measured here", "details": "aerosol formulation for treating asthma, single administration of a metered dose", "data": [{"smiles": "C[N+]1(C)CCC(OC(=O)C(O)(c2ccccc2)C2CCCC2)C1.[Br-]", "note": "(racemic) [glycopyrrolate, 3-[(cyclopentyl-hydroxyphenylacetyl)oxy]-1,1-dimethylpyrrolidinium bromide]", "values": [{"measurement": "duration of bronchodilation", "value": "up to 12 hours"}]}]}
